PubChem BioAssay (NCI)
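GI50 marks 50% less growth. TGI: total growth inhibition.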

How the values were obtained:
Assay in all cases: NCI-60 cell line screen, 384-well format
[1] = test system: SK-MEL-5 melanoma
[2] = test system: SNB-19 CNS
[3] = test system: NCI-H460 NSCLC
[4] = test system: 786-0 renal
[5] = test system: HL-60(TB) leukemia
[6] = test system: OVCAR-5 ovarian
[7] = test system: NCI/ADR-RES ovarian
[8] = test system: COLO 205 colon
[9] = test system: NCI-H322M lung
[10] = test system: HCC-2998 colon
[11] = test system: DU-145 prostate
[12] = test system: NCI-H522 lung
[13] = test system: OVCAR-4 ovarian

Q: What does the source list for `N#Cc1cnc(Nc2cc(NC[C@H]3CNCCO3)c(C(F)(F)F)cn2)cn1`?
A: GI50 [1]: 2.97 µM; TGI [1]: 16 µM; GI50 [2]: 9.81 µM; TGI [2]: 62.7 µM; GI50 [3]: 8.14 µM; TGI [3]: 21 µM; GI50 [4]: 1.59 µM; TGI [4]: 15.2 µM; GI50 [5]: 0.625 µM; TGI [5]: 1.76 µM; GI50 [6]: 17.1 µM; TGI [6]: 43.9 µM; GI50 [7]: 0.963 µM; TGI [7]: 2.91 µM; GI50 [8]: 15.3 µM; TGI [8]: 34.4 µM; GI50 [9]: 9.8 µM; TGI [9]: 32.4 µM; GI50 [10]: 0.402 µM; TGI [10]: 3.09 µM; GI50 [11]: 5.48 µM; TGI [11]: 19.4 µM; GI50 [12]: 13.6 µM; TGI [12]: 26.9 µM; GI50 [13]: 1.86 µM; TGI [13]: 34.4 µM
